Here are results for five compounds from patent US5387680A, “C-22 ring stabilized rapamycin derivatives” (American Home Products Corporation, priority 1993, dated 1995).

“And” between values parts separate entries of the source, which are not always exact repeats. Identical values can stand only once. Like-named read-outs stand apart in the source and are kept apart here.

Series [1] deals with lymphocyte proliferation (LAF); cells from the thymus of normal BALB/c mice. Description: comitogen-induced thymocyte proliferation procedure (LAF). It is filed as cell-based. The following applies: read-out: LAF IC50. The procedure: The immunosuppressive activities for representative compounds of this invention were evaluated in an in vitro standard pharmacological test procedure to measure lymphocyte proliferation (LAF) and in an in vivo standard pharmacological test procedure which evaluated the survival time of pinch skin grafts. […] Cells are harvested and incorporated radioactivity is determined. Inhibition of lymphoproliferation is assessed as percent change in counts per minute from non-drug treated controls. The results are expressed as an IC50.

Series [2] is described as follows: stability in 0.1M phosphate buffer via HPLC. It is filed as physicochemical. The procedure:
In addition, the stability of representative compounds was tested, via HPLC, in 0.1M phosphate buffer (pH 7.4, 37° C.).

Series [3] relates to pinch skin graft from male DBA/2 donors transplanted to male BALB/c recipients. Description: survival time of pinch skin graft. It is filed as in vivo, mice. The conditions noted are these: for Skin Graft (days), mean graft survival time: intraperitoneally, ± S.D. The procedure: Representative compounds of this invention were also evaluated in an in vivo test procedure designed to determine the survival time of pinch skin graft from male DBA/2 donors transplanted to male BALB/c recipients. The method is adapted from Billingham R. E. and Medawar P. B., J. Exp. Biol. 28:385-402, (1951). Briefly, a pinch skin graft from the donor is grafted on the dorsum of the recipient as a homograft, and an autograft is used as control in the same region. The recipients are treated with either varying concentrations of cyclosporin A as test control or the test compounds, intraperitoneally. Untreated recipients serve as rejection control. The graft is monitored daily and observations are recorded until the graft becomes dry and forms a blackened scab. This is considered as the rejection day. The mean graft survival time (number of days±S.D.) of the drug treatment group is compared with the control group.

The conditions of series [4]: alone or in combination with picibanil; cited from earlier work.
Series [5] has as its system formation of IgE-like antibodies. The following applies: cited from earlier work.
The subject of series [6] is adjuvant arthritis model, a model for rheumatoid arthritis. The following applies: cited from earlier work.
Series [7] concerns smooth muscle cell proliferation and intimal thickening following vascular injury. The following applies: cited from earlier work.
Another series deals with Candida albicans. The conditions noted are these: particularly against Candida albicans, both in vitro and in vivo; cited from earlier work.
Series [8] concerns insulin dependent diabetes mellitus. The conditions noted are these: cited from earlier work.
Series [9] concerns experimental allergic encephalomyelitis model, a model for multiple sclerosis. The following applies: cited from earlier work.
The subject of series [10] is systemic lupus erythematosus. The following applies: cited from earlier work.
Where [11] appears, read: BALB/c mouse thymocytes, PHA and IL-1, 72 hours.
Where [12] appears, read: 0.1m phosphate buffer, pH 7.4 buffer, 0.1M phosphate, 37° C., read-out: Stability (converted).

As a reminder, the IC50 is the concentration that gives 50% inhibition. For `CCC12CCCCN1C(=O)C(=O)[C@]1(O)O[C@@H](CC[C@H]1C)C[C@H](OC)/C(C)=C/C=C/C=C/[C@@H](C)C[C@@H](C)C(=O)[C@H](OC)[C@H](O)/C(C)=C/[C@@H](C)C(=O)C[C@@H]([C@H](C)C[C@@H]1CC[C@@H](O)[C@H](OC)C1)OC2=O` (stereo partly shown) [22-ethyl-rapamycin, C-22-ethyl-rapamycin], the IC50 in series [1] (setting [11]) came out at 140 nM.
For `CO[C@H]1C[C@@H]2CC[C@@H](C)[C@@](O)(O2)C(=O)C(=O)N2CCCCC2(C)C(=O)O[C@H]([C@H](C)C[C@@H]2CC[C@@H](O)[C@H](OC)C2)CC(O)[C@H](C)/C=C(\C)[C@@H](O)[C@@H](OC)C(=O)[C@H](C)C[C@H](C)/C=C/C=C/C=C/1C` (stereo partly shown) [22-methyl-27-hydroxyrapamycin, C-22-methyl-C-27-hydroxy-rapamycin], the IC50 in [1] (setting [11]) was 9.9 nM. The half-life in series [2] (0.1m phosphate buffer, pH 7.4) is 21.8 h.
Take `CO[C@H]1C[C@@H]2CC[C@@H](C)[C@@](O)(O2)C(=O)C(=O)N2CCCCC2(C)C(=O)O[C@H]([C@H](C)C[C@@H]2CC[C@@H](O)[C@H](OC)C2)CC(=O)[C@H](C)/C=C(\C)[C@@H](O)[C@@H](OC)C(=O)[C@H](C)C[C@H](C)/C=C/C=C/C=C/1C` (stereo partly shown) [22-methyl-rapamycin, C-22-methyl-rapamycin]: the “Skin Graft (days), mean graft survival time” value was 9.33 ± 0.52 days and 9.00 ± 0.63 days in series [3] (4 mg/kg); 10.17 ± 0.55 days in [3] (*tested at 16 mg/kg). Further, the “graft survival time (in words)” value in [3] (relative to grafts without immunosuppressive agent (rejected within 6-7 days)) is listed as “increased survival time”. Moreover, the IC50 in [1] (setting [11]) turned out to be 23.5 nM. Moreover, in series [2] (0.1M phosphate buffer, pH 7.4, 37° C., read-out: half life in stability test (converted)), the half-life is 38 h.
Take `COC1CC2CCC(C)C(O)(O2)C(=O)C(=O)N2CCCCC2(C)C(=O)OC(C(C)CC2CCC(OC(=O)CN(C)C)C(OC)C2)CC(=O)C(C)C=C(C)C(O)C(OC)C(=O)C(C)CC(C)C=CC=CC=C1C` (stereo not shown) [C-22-methyl-42-dimethylglycine-rapamycin, C-22-methyl-42-dimethylglycine rapamycin]: the IC50 in series [1] (setting [11]) was 19.9 nM. In [2] (setting [12]), the half-life is 13.5 h.
In the case of `CO[C@H]1C[C@@H]2CC[C@@H](C)[C@@](O)(O2)C(=O)C(=O)N2CCCC[C@H]2C(=O)O[C@H]([C@H](C)C[C@@H]2CC[C@@H](O)[C@H](OC)C2)CC(=O)[C@H](C)/C=C(\C)[C@@H](O)[C@@H](OC)C(=O)[C@H](C)C[C@H](C)/C=C/C=C/C=C/1C` [rapamycin], the “Skin Graft (days), mean graft survival time” value in series [3] (4 mg/kg) was 12.01 ± 0.26 days. The antitumor activity entry in series [4] is reported as “antitumor activity”. In series [1] (Mus musculus, 72 h), the IC50 lay within 0.4 to 9.4 nM. In addition, in series [5], the “inhibition of formation of IgE-like antibodies” value was “effectively inhibited”. Besides, the “effect in adjuvant arthritis model” value in series [6] is reported as “effective”. Besides, the “effect on smooth muscle cell proliferation and intimal thickening” value in series [7] is “useful in preventing or treating”. The antifungal activity result with Candida albicans is “antifungal activity, particularly against Candida albicans, both in vitro and in vivo”. In addition, in series [8], the “effect in insulin dependent diabetes mellitus” value is recorded as “useful in preventing or treating”. For the same compound, in series [9], the “effect in experimental allergic encephalomyelitis model” value is given as “effective”. In addition, the “half life in stability test” value in series [2] (0.1M phosphate buffer, pH 7.4, 37° C.) lay in the range of 12 to 13 h. The half-life in series [2] (setting [12]) was 12 to 13 h. The “effect in systemic lupus erythematosus” value in series [10] was “useful in preventing or treating”.
